These results are taken from US20260297542A1, “HERBICIDE RESISTANT PLANTS” (SYNGENTA CROP PROTECTION AG, priority 2023, published 2026).

Test [1] has as its target T1, AtPPO1 S305L Y426M (SEQ ID NO.124) (Arabidopsis thaliana, UniProt P55826, S305L/Y426M).
T1 construct: made in house; host or cells: E. coli BL21 (DE3) hemG, crude extract
T1 sequence (P55826 35-537 S305L/Y426M): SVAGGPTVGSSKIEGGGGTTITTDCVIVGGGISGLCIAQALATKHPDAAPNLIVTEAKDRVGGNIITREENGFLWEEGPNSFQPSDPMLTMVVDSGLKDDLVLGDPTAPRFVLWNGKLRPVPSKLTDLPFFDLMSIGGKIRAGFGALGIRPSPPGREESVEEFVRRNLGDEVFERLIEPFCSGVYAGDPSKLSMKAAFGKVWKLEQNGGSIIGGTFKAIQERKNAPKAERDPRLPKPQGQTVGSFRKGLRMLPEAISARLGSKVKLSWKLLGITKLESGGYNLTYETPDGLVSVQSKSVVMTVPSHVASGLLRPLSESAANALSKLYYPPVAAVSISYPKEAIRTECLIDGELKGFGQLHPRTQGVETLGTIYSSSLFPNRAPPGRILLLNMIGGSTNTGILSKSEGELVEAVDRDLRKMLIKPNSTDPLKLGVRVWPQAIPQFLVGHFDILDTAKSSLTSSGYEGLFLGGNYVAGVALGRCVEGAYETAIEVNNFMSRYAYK
Description: fluorescent Protoporphyrinogen Oxidase assay, crude extract. Type of test: biochemical. As to conditions: read-out: percentage inhibition.

The target of test [2] is T2, AtPPO1 S305L L361D V365M (SEQ ID NO.133) (Arabidopsis thaliana, UniProt P55826, S305L/V365M/Y361D).
T2 sequence (P55826 35-537 S305L/Y361D/V365M): T1 sequence (P55826 35-537 S305L/Y426M) with Y327D, V331M, M392Y
Described as above. As to conditions: read-out: percentage inhibition. It is filed as biochemical.

The subject of test [3] is tobacco plants containing pBin TMV AtPPO1. Briefly: herbicide damage to transgenic tobacco. As to conditions: 120 g ai/ha, per transgenic event, 0 no visible damage, 100 complete death. It is filed as in vivo. From the text:
Populations of transgenic tobacco comprising 20-30 transgenic events per plant transformation constructs are generated as described in Example 4. These lines were clonally propagated and 1 clone per event was sprayed with PPO herbicides to confirm the herbicide resistance.
Herbicidal damage is visually assessed across the population and a herbicide damage score given at 7 and 14 days. A score of 0 indicates no visible damage or stunting whereas a score of 100 indicates a complete death of the plant. 20 transgenic events (i.e. individual transgenic plants) from each GM tobacco line are transplanted to soil 1 week prior to spraying with PPO inhibiting compounds. WT tobacco is included as a control.
Herbicidal damage was visually assessed across the population and a herbicide damage score given at 7 and 14 days. A score of 0 indicates no visible damage or stunting whereas a score of 100 indicates a complete death of the plant. 20 transgenic events (i.e. individual transgenic plants) from each GM tobacco line were transplanted to soil 1 week prior to spraying with PPO inhibiting compounds. WT tobacco is included as a control.

Numbering of substitutions follows the chain as printed. Several values for one entry are separate records, joined by “and”; a condition that tells them apart may be missing. Identical values can stand only once.

For the molecule `CCOC(=O)COc1ncccc1Oc1cc(-n2c(=O)cc(C(F)(F)F)n(C)c2=O)c(F)cc1Cl` [Herbicide A, epyrifenacil], in test [1], the inhibition at 0.1 ppm was determined as 34%, the inhibition at 1 ppm stood at 82%, the inhibition at 10 ppm came to 100% and the inhibition at 100 ppm stood at 100%. In addition, in test [2], the inhibition at 0.1 ppm came out at 9%, the inhibition at 1 ppm was determined as 53%, the inhibition at 10 ppm is 84% and the inhibition at 100 ppm came out at 100%.

With `C#CCN1C(=O)C(F)(F)Oc2cc(F)c(-n3c(=O)n(C)c(=S)n(C)c3=O)cc21` [Herbicide B, trifludimoxazin], the percentage of damage in test [3] (7 DAT) was 100% and 99% and 87% and 97%. Further, in test [3] (14 DAT), the percentage of damage was 100% and 80% and 98% and 99%. In test [1], the inhibition at 0.1 ppm was 100%, the inhibition at 1 ppm was 100%, the inhibition at 10 ppm stood at 100% and the inhibition at 100 ppm turned out to be 100%. Besides, in test [2], the inhibition at 0.1 ppm worked out at 96%, the inhibition at 1 ppm came to 100%, the inhibition at 10 ppm is 100% and the inhibition at 100 ppm stood at 100%.

With `CCOC(=O)C1(C)CC(c2cc(-n3c(=O)cc(C(F)(F)F)n(C)c3=O)c(F)cc2Cl)=NO1` (stereo not shown) [Herbicide C, 3-(2-chloro-4-fluoro-5-(3-methyl-2,6-dioxo-4-trifluoromethyl-3,6-dihydropyrimidin-1(2H)-yl)phenyl)-5-methyl-4,5-dihydroisoxazole-5-carboxylic acid ethyl ester], the percentage of damage in test [3] (7 DAT) is 100% and 95% and 94% and 97%. Besides, the percentage of damage in test [3] (14 DAT) was 100% and 90% and 95% and 97% and 99%. In test [1], the inhibition at 0.1 ppm was 77%, the inhibition at 1 ppm was 88%, the inhibition at 10 ppm came to 100% and the inhibition at 100 ppm was found to be 100%. In addition, in test [2], the inhibition at 0.1 ppm was 30%, the inhibition at 1 ppm was found to be 56%, the inhibition at 10 ppm is 92% and the inhibition at 100 ppm worked out at 100%.

As to `CCOC(=O)[C@]1(C)CC(c2cc(-n3c(=O)n(C)c(=S)n(C)c3=O)c(F)cc2Cl)=NO1` [Herbicide D, ethyl (5S)-3-[2-chloro-5-(3,5-dimethyl-2,6-dioxo-4-thioxo-1,3,5-triazinan-1-yl)-4-fluoro-phenyl]-5-methyl-4H-isoxazole-5-carboxylate], the percentage of damage in test [3] (7 DAT) was 100% and 95% and 99% and 97% and 65% and 92% and 98%. Besides, the percentage of damage in test [3] (14 DAT) was 100% and 95% and 99% and 75% and 97% and 96%. Besides, in test [1], the inhibition at 0.1 ppm was determined as 53%, the inhibition at 1 ppm was 85%, the inhibition at 10 ppm worked out at 100% and the inhibition at 100 ppm worked out at 100%. In test [2], the inhibition at 0.1 ppm is 37%, the inhibition at 1 ppm turned out to be 87%, the inhibition at 10 ppm stood at 99% and the inhibition at 100 ppm is 100%.

For the molecule `CC(C)N(C)S(=O)(=O)NC(=O)c1cc(-n2c(=O)cc(C(F)(F)F)n(C)c2=O)c(F)cc1Cl` [Herbicide E, saflufenacil], in test [1], the inhibition at 0.1 ppm is 38%, the inhibition at 1 ppm stood at 78%, the inhibition at 10 ppm was determined as 100% and the inhibition at 100 ppm was found to be 96%. In addition, in test [2], the inhibition at 0.1 ppm came out at 0%, the inhibition at 1 ppm is 10%, the inhibition at 10 ppm turned out to be 76% and the inhibition at 100 ppm amounted to 88%.
